# Measured values from US20020193404A1, “Use of bicyclic heterocycles for the treatment and prevention of arterial thrombotic disease” (priority 2001, published 2002).
# Key:
# [1] = target: T1, human fibrinogen receptor (glycoprotein IIb/IIIa) (Homo sapiens, UniProt P05106+P08514); assay: Inhibition of binding of 3H-BIBU 52 to human thrombocytes; conditions: 3H-BIBU 52 5 nM, human thrombocytes in plasma, ambient temperature, 20 minutes
# T1 construct: endogenous in cells; host or cells: human thrombocytes in platelet-rich plasma from donor blood
# Method: The inhibiting effect on the human fibrinogen receptor (glycoprotein IIb/IIIa) was investigated as follows:
# Inhibition of Binding of ^3H-BIBU 52 to Human Thrombocytes:
# A suspension of human thrombocytes was incubated with ^3H-BIBU 52 [=(3S,5S)-5-[(4′-amidino-4-biphenylyl)oxymethyl]-3-[(carboxy)methyl]-2-pyrrolidinone[3-^3H-4-biphenylyl]], which replaces the ligand ^125I-fibrinogen known from the literature (cf. DE-A-4 214 245), and various concentrations of the substance being tested. The free and bound ligands were separated by centrifugation and quantitatively determined by scintillation counting. The inhibition of the ^3H-BIBU 52 binding by the test substance was determined from the measurements obtained. To do this, donor blood was taken from an anticubital vein and anticoagulated with trisodium citrate (final concentration: 13 mM). The blood was centrifuged for ten minutes at 170× g and the supernatant platelet-rich plasma (PRP) was removed. The remaining blood was sharply centrifuged once more to obtain plasma. The PRP was diluted 1:10 with autologous plasma. […] 100 μl thereof were assayed in order to quantify the free ligand. […] The residual plasma still remaining in the pellet was determined from the ^14C content while the bound ligand was determined from the ^3H measurement. […]
# human citrated plasma = assay: aPTT (activated partial thromboplastin time) prolongation; conditions: concentration at which the aPTT time was double that of the control, 37° C.
# Method: The inhibiting effect of the two substances on blood clotting was measured by determining the prolongation of aPTT (activated partial thromboplastin time) as follows:
# Plasma, from citrated human blood
# PTT reagent, Boehringer Mannheim (524298)
# Calcium solution (0.025 mol/L), Behring Werke, Marburg (ORH 056/57)
# Diethyl barbiturate acetate buffer, Behring Werke, Marburg (ORWH 60/61)
# The aPTT was determined using a Biomatic—B 10 coagulometer made by Messrs Desaga (Wiesloch). The test substance was placed in the test tubes prescribed by the manufacturer with 0.1 ml of human citrated plasma and 0.1 ml of PTT reagent. The preparations were incubated for three minutes at 37° C. The clotting reaction was started by the addition of 0.1 ml of calcium solution. The time taken for the plasma to clot was measured by the apparatus as the calcium solution was added. Analogous test preparations to which 0.1 ml of diethyl barbiturate acetate buffer had been added were used as controls. According to the definition of EC200, the substance concentration at which the aPTT time was double that of the control was determined using a dosage-activity curve.
# T1 sequence (P08514 32-887 limits assumed): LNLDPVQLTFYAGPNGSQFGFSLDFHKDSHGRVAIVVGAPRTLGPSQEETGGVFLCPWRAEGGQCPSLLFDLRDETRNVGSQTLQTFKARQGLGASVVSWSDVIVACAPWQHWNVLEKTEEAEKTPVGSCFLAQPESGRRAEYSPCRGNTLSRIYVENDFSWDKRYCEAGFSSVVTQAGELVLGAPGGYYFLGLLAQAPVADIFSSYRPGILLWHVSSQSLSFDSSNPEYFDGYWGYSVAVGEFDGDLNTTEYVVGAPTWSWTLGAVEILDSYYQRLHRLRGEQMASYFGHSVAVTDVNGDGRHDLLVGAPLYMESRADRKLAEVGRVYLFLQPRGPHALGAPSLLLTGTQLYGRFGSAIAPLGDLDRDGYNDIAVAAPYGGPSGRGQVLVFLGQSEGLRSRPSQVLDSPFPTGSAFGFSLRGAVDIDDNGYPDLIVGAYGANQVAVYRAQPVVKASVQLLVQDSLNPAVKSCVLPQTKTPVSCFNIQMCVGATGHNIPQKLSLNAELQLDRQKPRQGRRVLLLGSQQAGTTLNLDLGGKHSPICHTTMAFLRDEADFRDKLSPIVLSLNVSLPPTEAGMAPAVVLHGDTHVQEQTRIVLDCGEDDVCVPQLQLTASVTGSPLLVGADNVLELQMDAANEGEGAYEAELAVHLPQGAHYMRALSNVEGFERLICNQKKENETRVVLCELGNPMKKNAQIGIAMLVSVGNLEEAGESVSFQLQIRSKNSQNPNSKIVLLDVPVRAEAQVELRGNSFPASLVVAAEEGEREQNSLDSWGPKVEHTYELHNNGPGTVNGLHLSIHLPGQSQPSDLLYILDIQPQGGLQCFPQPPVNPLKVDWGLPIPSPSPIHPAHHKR
# T1 sequence (P08514 891-1039 partner limits assumed): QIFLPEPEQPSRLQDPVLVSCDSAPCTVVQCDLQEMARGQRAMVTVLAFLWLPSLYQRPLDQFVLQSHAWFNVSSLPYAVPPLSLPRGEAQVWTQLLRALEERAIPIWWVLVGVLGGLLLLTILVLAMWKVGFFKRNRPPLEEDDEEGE
# T1 sequence (P05106 27-788): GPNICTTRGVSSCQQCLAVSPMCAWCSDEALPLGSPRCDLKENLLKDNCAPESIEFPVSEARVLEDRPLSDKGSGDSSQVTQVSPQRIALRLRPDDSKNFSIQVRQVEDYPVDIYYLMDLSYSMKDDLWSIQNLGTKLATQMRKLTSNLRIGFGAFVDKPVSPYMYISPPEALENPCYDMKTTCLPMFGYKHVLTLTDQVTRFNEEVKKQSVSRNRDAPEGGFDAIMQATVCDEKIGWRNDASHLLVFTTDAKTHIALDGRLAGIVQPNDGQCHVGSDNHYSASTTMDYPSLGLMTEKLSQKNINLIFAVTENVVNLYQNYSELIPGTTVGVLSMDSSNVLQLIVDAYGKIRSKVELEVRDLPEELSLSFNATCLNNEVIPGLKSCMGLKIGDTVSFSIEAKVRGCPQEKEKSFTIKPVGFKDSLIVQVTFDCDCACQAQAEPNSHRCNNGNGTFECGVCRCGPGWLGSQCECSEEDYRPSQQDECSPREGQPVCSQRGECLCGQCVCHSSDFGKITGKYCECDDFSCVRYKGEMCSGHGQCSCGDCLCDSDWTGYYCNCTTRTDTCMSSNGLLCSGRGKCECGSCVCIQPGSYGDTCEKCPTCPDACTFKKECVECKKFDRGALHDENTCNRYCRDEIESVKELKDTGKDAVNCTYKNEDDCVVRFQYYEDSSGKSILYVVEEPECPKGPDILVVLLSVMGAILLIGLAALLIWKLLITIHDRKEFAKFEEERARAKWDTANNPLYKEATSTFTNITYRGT
SMILES,IC50 [1],aPTT (EC200) (human citrated plasma)
"Cn1c(COc2ccc(C(=N)N)cc2)nc2cc(N(CC(=O)O)S(=O)(=O)c3cccc4cccnc34)ccc21 [A, 1-methyl-2-[(4-amidinophenyl)-oxymethyl]-5-[N-(hydroxycarbonylmethyl)-quinoline-8-sulphonylamino]-benzimidazole]",6 nM,0.013 µmol/L
"Cn1c(CNc2ccc(C(=N)N)cc2)nc2cc(N(CC(=O)O)S(=O)(=O)c3cccc4cccnc34)ccc21 [B, 1-methyl-2-[N-(4-amidinophenyl)-aminomethyl]-5-[N-(hydroxycarbonylmethyl)-quinoline-8-sulphonylamino]-benzimidazole]",49 nM,0.026 µmol/L
